The IC50 is the concentration that gives 50% inhibition.

In one test the target is T1, Alpha amylase (Homo sapiens, UniProt P0DUB6).
T1 sequence (P0DUB6 whole entry): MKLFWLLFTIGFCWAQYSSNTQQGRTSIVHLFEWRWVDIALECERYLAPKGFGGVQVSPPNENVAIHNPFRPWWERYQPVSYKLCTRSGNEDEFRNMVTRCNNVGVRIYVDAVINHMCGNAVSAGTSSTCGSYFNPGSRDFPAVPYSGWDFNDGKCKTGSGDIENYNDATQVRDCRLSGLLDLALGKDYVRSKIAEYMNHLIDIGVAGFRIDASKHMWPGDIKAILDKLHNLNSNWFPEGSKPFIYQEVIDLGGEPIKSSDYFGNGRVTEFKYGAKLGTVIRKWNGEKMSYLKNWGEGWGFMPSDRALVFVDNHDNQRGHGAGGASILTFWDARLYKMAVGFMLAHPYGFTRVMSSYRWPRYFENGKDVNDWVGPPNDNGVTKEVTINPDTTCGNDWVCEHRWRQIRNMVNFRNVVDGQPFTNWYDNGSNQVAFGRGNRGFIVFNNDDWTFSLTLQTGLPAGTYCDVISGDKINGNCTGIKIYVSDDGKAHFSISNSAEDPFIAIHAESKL
In words: Inhibition of alpha amylase (unknown origin) using starch as substrate preincubated for 30 mins followed by substrate addition and measured after 30 mins by absorbance based analysis.

Test [1] is described as follows: Antioxidant activity assessed as DPPH radical scavenging activity incubated for 30 mins under dark condition. The class given is functional. For orientation: DPPH is a stable violet radical that fades when it is reduced.

Structures are written as SMILES. Converted amounts (≈) assume the structure as drawn.

Consider `COc1ccc(-c2nc3c(n2Cc2cn(-c4ccc([N+](=O)[O-])cc4)nn2)C(=O)c2ccccc2C3=O)cc1`, for which the IC50 against Alpha amylase turned out to be 18.62 µg/mL (≈ 36.8 µM); in test [1] it was 10.88 µg/mL (≈ 21.5 µM).

For the compound `COc1ccc(-c2nc3c(n2Cc2cn(-c4ccc(F)cc4)nn2)C(=O)c2ccccc2C3=O)c(OC)c1`, the half-inhibitory concentration (IC50) came to 23.81 µg/mL (≈ 46.7 µM) against Alpha amylase and 9.92 µg/mL (≈ 19.5 µM) in test [1].

Consider `COc1ccc(-c2nc3c(n2Cc2cn(-c4ccc(C)cc4)nn2)C(=O)c2ccccc2C3=O)cc1`, for which the half-maximal inhibitory concentration (IC50) was 24.58 µg/mL (≈ 51.7 µM) against Alpha amylase and 10.14 µg/mL (≈ 21.3 µM) in test [1].

For `COc1cccc(-c2nc3c(n2Cc2cn(-c4ccccc4)nn2)C(=O)c2ccccc2C3=O)c1`, the results for the IC50 (against Alpha amylase; in test [1]) were 25.07 µg/mL (≈ 54.3 µM) and 10.05 µg/mL (≈ 21.8 µM), respectively.

Take `COc1ccc(-c2nc3c(n2Cc2cn(-c4ccc(C)cc4)nn2)C(=O)c2ccccc2C3=O)c(OC)c1OC`: the IC50 at Alpha amylase came out at 22.87 µg/mL (≈ 42.7 µM); in test [1], 10.19 µg/mL (≈ 19 µM).

In the case of `COc1ccc(-c2nc3c(n2Cc2cn(-c4ccccc4)nn2)C(=O)c2ccccc2C3=O)cc1`, the half-maximal inhibitory concentration (IC50) amounted to 20.73 µg/mL (≈ 44.9 µM) on Alpha amylase and 10.15 µg/mL (≈ 22 µM) in test [1].

`CCCCn1cc(Cn2c(-c3ccc(OC)c(OC)c3OC)nc3c2C(=O)c2ccccc2C3=O)nn1`: the values for the IC50 (against Alpha amylase; in test [1]) were 23.49 µg/mL (≈ 46.8 µM) and 9.23 µg/mL (≈ 18.4 µM), respectively.

As for `CCCCn1cc(Cn2c(-c3ccc(OC)cc3)nc3c2C(=O)c2ccccc2C3=O)nn1`, the IC50 on Alpha amylase amounted to 24.25 µg/mL (≈ 54.9 µM); in test [1] it was 10.76 µg/mL (≈ 24.4 µM).

As to `Cc1ccc(-n2cc(Cn3c(-c4ccc(F)cc4)nc4c3C(=O)c3ccccc3C4=O)nn2)cc1`, the half-inhibitory concentration (IC50) worked out at 24.08 µg/mL (≈ 52 µM) against Alpha amylase and 9.61 µg/mL (≈ 20.7 µM) in test [1].

`COc1ccc(-c2nc3c(n2Cc2cn(-c4ccccc4)nn2)C(=O)c2ccccc2C3=O)c(OC)c1`: the 50% inhibitory concentration (IC50) was 25.44 µg/mL (≈ 51.8 µM) against Alpha amylase and 11.09 µg/mL (≈ 22.6 µM) in test [1].

As to `COc1cccc(-c2nc3c(n2Cc2cn(-c4ccc(F)cc4)nn2)C(=O)c2ccccc2C3=O)c1`, the half-maximal inhibitory concentration (IC50) is 18.41 µg/mL (≈ 38.4 µM) on Alpha amylase and 9.3 µg/mL (≈ 19.4 µM) in test [1].

For the compound `COc1ccc(-c2nc3c(n2Cc2cn(-c4ccc([N+](=O)[O-])cc4)nn2)C(=O)c2ccccc2C3=O)c(OC)c1OC`, the figures for the IC50 (against Alpha amylase; in test [1]) were 18.11 µg/mL (≈ 32 µM) and 10.1 µg/mL (≈ 17.8 µM), respectively.

As for `COc1ccc(-n2cc(Cn3c(-c4ccc(F)cc4)nc4c3C(=O)c3ccccc3C4=O)nn2)cc1`, the IC50 against Alpha amylase stood at 19.87 µg/mL (≈ 41.4 µM); in test [1] it was 10.84 µg/mL (≈ 22.6 µM).

`COc1ccc(-c2nc3c(n2Cc2cn(-c4ccc([N+](=O)[O-])cc4)nn2)C(=O)c2ccccc2C3=O)c(OC)c1`: the IC50 stood at 20.24 µg/mL (≈ 37.7 µM) on Alpha amylase and 10.07 µg/mL (≈ 18.8 µM) in test [1].

Turning to `COc1ccc(-c2nc3c(n2Cc2cn(-c4ccccc4)nn2)C(=O)c2ccccc2C3=O)c(OC)c1OC`, the concentration for half-maximal inhibition (IC50) was determined as 18.51 µg/mL (≈ 35.5 µM) on Alpha amylase and 9.63 µg/mL (≈ 18.5 µM) in test [1].

On to `CCCCn1cc(Cn2c(-c3ccc(OC)cc3OC)nc3c2C(=O)c2ccccc2C3=O)nn1`, for which the IC50 worked out at 20.64 µg/mL (≈ 43.8 µM) at Alpha amylase and 10.26 µg/mL (≈ 21.8 µM) in test [1].

In the case of `Cc1cc(C(C)(C)C)c(O)c(C(C)(C)C)c1` [BUTYLATED HYDROXYTOLUENE], in test [1], the half-inhibitory concentration (IC50) was determined as 9.41 µg/mL (≈ 42.7 µM).

Turning to `COc1ccc(-c2nc3c(n2Cc2cn(-c4ccc(C)cc4)nn2)C(=O)c2ccccc2C3=O)c(OC)c1`, the results for the IC50 (against Alpha amylase; in test [1]) were 21.71 µg/mL (≈ 42.9 µM) and 11.19 µg/mL (≈ 22.1 µM), respectively.

As to `O=C1c2ccccc2C(=O)c2c1nc(-c1ccc(F)cc1)n2Cc1cn(-c2ccc([N+](=O)[O-])cc2)nn1`, the IC50 against Alpha amylase was 18.63 µg/mL (≈ 37.7 µM); in test [1], 9.69 µg/mL (≈ 19.6 µM).

In the case of `COc1ccc(-c2nc3c(n2Cc2cn(-c4ccc(F)cc4)nn2)C(=O)c2ccccc2C3=O)c(OC)c1OC`, the half-maximal inhibitory concentration (IC50) came to 23.94 µg/mL (≈ 44.4 µM) against Alpha amylase and 10.41 µg/mL (≈ 19.3 µM) in test [1].

`COc1cccc(-c2nc3c(n2Cc2cn(-c4ccc(C)cc4)nn2)C(=O)c2ccccc2C3=O)c1`: the values for the IC50 (against Alpha amylase; in test [1]) were 18.42 µg/mL (≈ 38.7 µM) and 9.5 µg/mL (≈ 20 µM), respectively.

Take `COc1ccc(-n2cc(Cn3c(-c4cccc(OC)c4)nc4c3C(=O)c3ccccc3C4=O)nn2)cc1`: the figures for the IC50 (against Alpha amylase; in test [1]) were 22.73 µg/mL (≈ 46.2 µM) and 9.8 µg/mL (≈ 19.9 µM), respectively.

As to `O=C1c2ccccc2C(=O)c2c1nc(-c1ccc(F)cc1)n2Cc1cn(-c2ccc(F)cc2)nn1`, the concentration for half-maximal inhibition (IC50) against Alpha amylase is 22.04 µg/mL (≈ 47.2 µM); in test [1], 9.57 µg/mL (≈ 20.5 µM).

Turning to `CCCCn1cc(Cn2c(-c3ccc(F)cc3)nc3c2C(=O)c2ccccc2C3=O)nn1`, the concentration for half-maximal inhibition (IC50) on Alpha amylase came to 19.72 µg/mL (≈ 45.9 µM); in test [1], 9.41 µg/mL (≈ 21.9 µM).

Regarding `COc1ccc(-n2cc(Cn3c(-c4ccc(OC)cc4OC)nc4c3C(=O)c3ccccc3C4=O)nn2)cc1`, the IC50 stood at 19.3 µg/mL (≈ 37 µM) on Alpha amylase and 10.65 µg/mL (≈ 20.4 µM) in test [1].

As for `O=C1c2ccccc2C(=O)c2c1nc(-c1ccc(F)cc1)n2Cc1cn(-c2ccccc2)nn1`, the IC50 turned out to be 26.01 µg/mL (≈ 57.9 µM) against Alpha amylase and 10.32 µg/mL (≈ 23 µM) in test [1].

Turning to `COc1cccc(-c2nc3c(n2Cc2cn(-c4ccc([N+](=O)[O-])cc4)nn2)C(=O)c2ccccc2C3=O)c1`, the IC50 is 21.18 µg/mL (≈ 41.8 µM) against Alpha amylase and 9.2 µg/mL (≈ 18.2 µM) in test [1].

As for `COc1ccc(-c2nc3c(n2Cc2cn(-c4ccc(F)cc4)nn2)C(=O)c2ccccc2C3=O)cc1`, the IC50 is 24.19 µg/mL (≈ 50.5 µM) against Alpha amylase and 10.58 µg/mL (≈ 22.1 µM) in test [1].

`COc1ccc(-c2nc3c(n2Cc2cn(-c4ccc(OC)cc4)nn2)C(=O)c2ccccc2C3=O)cc1`: the IC50 on Alpha amylase was 25.49 µg/mL (≈ 51.9 µM); in test [1], 9.55 µg/mL (≈ 19.4 µM).

`COc1ccc(-n2cc(Cn3c(-c4ccc(OC)c(OC)c4OC)nc4c3C(=O)c3ccccc3C4=O)nn2)cc1`: the results for the half-maximal inhibitory concentration (IC50) (against Alpha amylase; in test [1]) were 17.83 µg/mL (≈ 32.3 µM) and 8.99 µg/mL (≈ 16.3 µM), respectively.

Turning to `CCCCn1cc(Cn2c(-c3cccc(OC)c3)nc3c2C(=O)c2ccccc2C3=O)nn1`, the results for the IC50 (on Alpha amylase; in test [1]) were 21.11 µg/mL (≈ 47.8 µM) and 9.82 µg/mL (≈ 22.2 µM), respectively.

For the origin of these results see ChEMBL document CHEMBL5385899, “Design, synthesis, spectroscopic characterization, single crystal X-ray analysis, in vitro α-amylase inhibition assay, DPPH free radical evaluation and computational studies of naphtho[2,3-d]imidazole-4,9-dione appended 1,2,3-triazoles” (Eur J Med Chem, 2023).
